Laboratory results as given in article PMC4560900, “High-throughput screening against thioredoxin glutathione reductase identifies novel inhibitors with potential therapeutic value for schistosomiasis” (Infectious Diseases of Poverty, 2015).

How the values were obtained:
[1] = system: worms; design: method as in PMID 7016122; details: previous studies; cited from earlier work
[2] = system: SmTGR; design: method as in PMID 17579510; details: read-out: IC50 documented in the literature; cited from earlier work
[3] = molecular target: T1, Thioredoxin glutathione reductase from S. mansoni (SmTGR) (Schistosoma mansoni, UniProt Q962Y6); test: Endpoint SmTGR fluorescence (ThioGlo) assay; type: biochemical
T1 construct: made in house
T1 sequence (Q962Y6 1-598): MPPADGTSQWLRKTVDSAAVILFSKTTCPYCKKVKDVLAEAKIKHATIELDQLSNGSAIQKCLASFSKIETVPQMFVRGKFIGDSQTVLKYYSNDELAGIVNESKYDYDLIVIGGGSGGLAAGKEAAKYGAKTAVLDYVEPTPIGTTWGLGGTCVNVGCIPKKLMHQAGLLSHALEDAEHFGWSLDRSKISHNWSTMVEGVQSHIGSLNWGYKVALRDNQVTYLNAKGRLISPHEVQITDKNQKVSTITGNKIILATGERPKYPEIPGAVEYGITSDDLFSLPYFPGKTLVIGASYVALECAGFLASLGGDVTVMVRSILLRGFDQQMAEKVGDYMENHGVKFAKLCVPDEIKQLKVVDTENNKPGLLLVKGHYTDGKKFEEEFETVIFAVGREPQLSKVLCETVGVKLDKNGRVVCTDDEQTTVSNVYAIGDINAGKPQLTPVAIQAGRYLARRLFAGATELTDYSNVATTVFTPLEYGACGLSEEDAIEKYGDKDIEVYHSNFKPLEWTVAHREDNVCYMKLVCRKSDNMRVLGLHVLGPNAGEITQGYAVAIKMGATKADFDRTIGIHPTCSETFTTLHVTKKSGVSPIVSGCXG
Experimental: SmTGR protein (1.58 μg/ml) was loaded into each well of black 384-well plates (PerkinElmer, Boston, MA, USA) containing 19 μl of assay buffer I (90 mM Tris-HCl, 10 mM EDTA, pH 7.5, 100 μM NADPH, and 0.48 mg/ml BSA), followed by an addition of 1 μl positive control or test compounds. The plates were sealed and incubated for 50 min at room temperature. […] Following a 1 h incubation, the product was reacted with 30 μl ThioGlo® 1 reagent for 20–30 min, and the fluorescence signal was monitored at an excitation wavelength of 380 nm and an emission wavelength of 515 nm on the EnVision plate reader (PerkinElmer).
An HTS effort was carried out against the compound library described above. […]
Data were analyzed using GraphPad Prism® software (GraphPad, San Diego, CA, USA). […]
Recombinant SmTGR was expressed and purified as previously described. An earlier assay of the coupled activities of SmTGR and peroxiredoxin-2 [13] was adapted to study the activity of SmTGR alone, using the following principle: SmTGR converts NADPH and GSSG to NADP^+ and reduced glutathione (GSH), and GSH production can be detected with ThioGlo®, a maleimide derivative of the naphthopyranone fluorophore which fluoresces upon reacting with free thiol groups such as those present in GSH. […] After ten additional minutes, samples were excited at […] and read for fluorescence at 515 nM.

Compound | Worm-killing activity concentration [1] [µM] | IC50 [2] [µM] | IC50 [3] [µM] | inhibition at 30 µM ([3]; read-out: Inhibition of SmTGR) [%]
O=C(C1CCCCC1)N1CC(=O)N2CCc3ccccc3C2C1 (stereo not shown) [PZQ, praziquantel] | 0.3 to 1 | – | – | –
O=C1C=CC(=O)c2c(O)ccc(O)c21 [naphthazarin, Naphthazarin] | – | 10 | 1.42 ± 0.08 | 100
